Test results: patent publication US8163795B2, “Chroman derivatives, medicaments and use in therapy” (Marshall Edwards, Inc., priority 2004, dated 2012)
Read-outs that look alike come from different tables or passages of the source.

Key:
[1] = test system: TXB2; test: Eicosanoid synthesis in LPS-stimulated murine macrophages (RAW 264.7); assay type: cell-based, mouse; conditions: 10 μM; negative values indicate inhibition
Procedure: (§1) The mouse macrophage cell line RAW 264.7 was cultured in DMEM supplemented with foetal calf serum (FCS), 2 mM glutamine and 50 U/ml penicillin/streptomycin. Subconfluent cells were detached from the flask by gentle scraping and 24-well plates seeded at 5×10^5 cells per well and allowed to adhere for 1 hr. Cells were then treated either test compound at a concentration of 10 μM (in 0.025% DMSO) or vehicle alone, and incubated for 1 hr. LPS 50 ng/ml (LPS—Sigma-Aldrich) was then added. After incubation for 16 hrs, culture media was collected and stored at −80° C. for ecosanoid measurements using enzyme immunometric assays (PGE2 and TXB2—Cayman Chemical).
(§2) Table 16: Percentage change in eicosanoid synthesis after incubating test compound at 10 μM compared with incubation with vehicle alone.

[2] = test system: PGE2; test: as above; assay type: cell-based, mouse; conditions: 10 μM; negative values indicate inhibition
Procedure: as §1, §2

[3] = test system: CP70 (Ovarian); test: HHC as chemosensitiser; assay type: cell-based
Text: (§3) HHC was screened as chemosensitiser against a panel cell lines representative of a range cancer indications using a panel of cytotoxics commonly used in the treatment of cancer.

[4] = test system: MDA-468 (Breast); test: HHC as chemosensitiser; assay type: cell-based; conditions: Breast MDA-468
Text: as §3

[5] = test system: MM96L (Melanoma); test: HHC as chemosensitiser; assay type: cell-based
Text: as §3

[6] = test system: HPAC (Pancreatic); test: HHC as chemosensitiser; assay type: cell-based
Text: as §3

[7] = test system: HTB-13.8 (Glioma); test: HHC as chemosensitiser; assay type: cell-based; conditions: Glioma HTB-13.8
Text: as §3

[8] = test system: PC3 (Prostate); test: HHC as chemosensitiser; assay type: cell-based
Text: as §3

[9] = test system: Neonatal foreskin fibroblasts (NFF); test: Proliferation assay (MTT), normal cell toxicity; assay type: cell-based, Human
Procedure: (§4) The normal cell line NFF (neonatal foreskin fibroblasts) was a sift from Dr. Peter Parsons (Queensland Institute of Medical Research). RK (rabbit kidney) cells were obtained from Miller Whalley (Macquarie University). Both cell lines were cultured in RPMI supplemented with 10% FCS(CSL, Australia), penicillin (100 U/ml), streptomycin ([…]), L-glutamine (2 mM) and sodium bicarbonate (1.2 g/L), and cultured at 37° C. in a humidified atmosphere of 5% CO2.
(§5) IC50 values were determined for each cell line. Cells were seeded in 96-well plates at an appropriate cell density as determined from growth kinetics analysis and cultured for 5 days in the absence and presence of the test compounds. Cell proliferation was assessed after the addition of 20 μl of 3-4,5 dimethylthiazol-2,5-diphenyl tetrazolium bromide (MTT, 2.5 mg/ml in PBS, Sigma) for 3-4 hrs at 37° C. according to manufacturer's instructions. IC50 values were calculated from semi-log plots of % of control proliferation on the y-axis against log dose on the x-axis.

[10] = test system: IGR-3 (Melanoma); test: Proliferation assay (MTT); assay type: cell-based; conditions: Table 15; melanoma IgR3
Procedure: (§6) All cultures were supplemented with 10% FCS (fetal calf serum CSL, Australia), penicillin (100 U/ml), streptomycin ([…]), L-glutamine (2 mM) and sodium bicarbonate (1.2 g/L), and cultured at 37° C. in a humidified atmosphere of 5% CO2. All cell lines were purchased from ATCC (Maryland, USA) except where noted.
as §5

[11] = test system: CCRF-CEM (Leukemic); test: Proliferation assay (MTT); assay type: cell-based; conditions: Homo sapiens, CCRF-CEM, Table 2.2; Leukaemia CCRF-CEM
Procedure: as §6, §5

[12] = test system: PC3 prostate cancer cell line; test: Proliferation assay (MTT); assay type: cell-based; conditions: Table 2.2
Procedure: as §6, §5

[13] = test system: SKMe128 melanoma cell line; test: Proliferation assay (MTT); assay type: cell-based; conditions: Table 15
Procedure: as §6, §5

[14] = test system: HT-29 (Colorectal); test: Proliferation assay (MTT); assay type: cell-based; conditions: Homo sapiens, HT-29, Table 2.2; Colorectal HT-29
Procedure: as §6, §5

[15] = test system: 4405 melanoma cell line; test: Proliferation assay (MTT); assay type: cell-based; conditions: Table 15; melanoma 4405
Procedure: as §6, §5

[16] = test system: MM96L melanoma cell line; test: Proliferation assay (MTT); assay type: cell-based; conditions: Homo sapiens, Table 15
Procedure: as §6, §5

[17] = test system: NCI-H460 (Lung); test: Proliferation assay (MTT); assay type: cell-based; conditions: Homo sapiens, NCI-H460, Table 2.2; NSC Lung NCI-H460
Procedure: as §6, §5

[18] = test system: RM melanoma cell line; test: Proliferation assay (MTT); assay type: cell-based; conditions: Table 15
Procedure: as §6, §5

[19] = test system: HTB-138 (Glioma); test: Proliferation assay (MTT); assay type: cell-based; conditions: Table 2.2; Glioma HTB-138
Procedure: as §6, §5

[20] = test system: cancer cell lines; test: Proliferation assays, statements over several cancer cell lines; assay type: cell-based; conditions: all melanoma cell lines tested to date
Procedure: as §5

[21] = test system: CP70 ovarian cancer cell line; test: Proliferation assay (MTT); assay type: cell-based; conditions: Table 2.2 (further studies); Ovarian CP70; read-out: IC50
[22] = test system: MM200 melanoma cell line; test: Proliferation assay (MTT); assay type: cell-based; conditions: read-out: IC50
[23] = test system: MDA-MB-468 breast cancer cell line; test: Proliferation assay (MTT); assay type: cell-based; conditions: Homo sapiens, MDA-MB-468, Table 2.2; Breast MDA-MB-468; read-out: IC50
[24] = test system: HPAC (CRL-2119) pancreatic cancer cell line; test: Proliferation assay (MTT); assay type: cell-based, human; conditions: Homo sapiens, HPAC, Table 2.2; Pancreatic HPAC; read-out: IC50
[25] = test system: rabbit kidney cells (RK); test: Proliferation assay (MTT), normal cell toxicity; assay type: cell-based
Procedure: as §4, §5

[26] = HMC and HHC pharmacokinetics, oral, human patients; assay type: in vivo; conditions: plasma
Procedure: Human patients were orally dosed with 200 mg of either HMC or HHC. For each challenged patient, blood was taken over a 6 hour period and the results averaged to characterise the plasma pharmacokinetics.

[27] = test system: cancer cell lines from different pathologies; test: HHC as chemosensitiser, statements by cancer indication; assay type: cell-based
Text: as §3

[28] = test system: A2058 melanoma cell line; test: Proliferation assay (MTT); assay type: cell-based; conditions: Homo sapiens, A2058, Table 15; melanoma A2058
[29] = human, po, humans dosed orally with 200 mg

Oc1ccc(C2COc3cc(O)ccc3C2c2ccc(O)cc2)cc1 (stereo not drawn) [Compound 11, 3-(4-hydroxyphenyl)-4-(4-hydroxyphenyl)chroman-7-ol]
Percentage change in TXB2 synthesis vs vehicle alone [1]: 51.4%
Percentage change in PGE2 synthesis vs vehicle alone [2]: 27.2%
Synergy of HHC with Cisplatin [3]: SSSSS (SSSSS = Synergy)
Synergy of HHC with Gemcitabine [3]: SSSSS (SSSSS = Synergy)
Synergy of HHC with Paclitaxel ([3]; listed as HHC): n.o. (n.o. = not observed)
Synergy of HHC with Gemcitabine [4]: SSSSS (SSSSS = Synergy)
chemosensitisation to cisplatin, carboplatin and decarbazine ([5]; MM96L melanoma cell line): strongly chemosensitise
Synergy of HHC with Carboplatin ([5]; Melanoma MM96L): SSSSS (SSSSS = Synergy)
Synergy of HHC with Cisplatin ([5]; Melanoma MM96L): SSSSS (SSSSS = Synergy)
Synergy of HHC with Dacarbazine ([5]; Melanoma MM96L): SSSSS (SSSSS = Synergy)
Synergy of HHC with Cisplatin [6]: n.o. (n.o. = not observed)
Synergy of HHC with Gemcitabine [6]: SSSSS (SSSSS = Synergy)
Synergy of HHC with Paclitaxel [6]: n.o. (n.o. = not observed)
Synergy of HHC with Cisplatin [7]: n.o. (n.o. = not observed)
Synergy of HHC with Gemcitabine [7]: SSSSS (SSSSS = Synergy)
Synergy of HHC with Paclitaxel ([7]; listed as HHC): n.o. (n.o. = not observed)
Synergy of HHC with Cisplatin [8]: SSSSS (SSSSS = Synergy)
Synergy of HHC with Gemcitabine [8]: SSSSS (SSSSS = Synergy)
Synergy of HHC with Paclitaxel [8]: n.o. (n.o. = not observed)
IC50 ([9]; Homo sapiens, Fibroblast, Table 1, Neonatal Foreskin Fibroblasts (Human, NFF), read-out: IC50): 60800 nM
IC50 ([9]; NFF): non-toxic
IC50 [10]: 200 nM
IC50 [11]: 600 ± 10 nM
IC50 [12]: 880 ± 400 nM
IC50 [13]: 360 ± 340 nM
IC50 [14]: 2500 ± 1000 nM
IC50 [15]: 500 nM
IC50 [16]: 200 ± 90 nM
IC50 [17]: 500 ± 100 nM
IC50 [18]: 390 ± 280 nM
IC50 [19]: 520 ± 100 nM
IC50 [20]: < 1000 nM
IC50 [21]: 1100 ± 900 nM
IC50 ([22]; Table 2.2, Melanoma MM200): 600 ± 300 nM
IC50 ([22]; Table 15, melanoma MM200, monotherapy): 660 ± 280 nM
IC50 [23]: 1000 ± 100 nM
IC50 [24]: 31600 ± 27000 nM
IC50 ([25]; Oryctolagus cuniculus, Table 1, Rabbit Kidney, read-out: IC50): > 150000 nM
IC50 ([25]; rabbit kidney cells): non-toxic
Cmax [26, 29]: 341 ng/mL
Tmax [26, 29]: 2.67 h
t1/2 ([26]; humans dosed orally with 200 mg): 3.26 h
half-life ([26]; human patients, 200 mg oral, initial results): 3.26 h
synergy HHC:paclitaxel ([27]; breast and colorectal cancer, and melanoma cell lines): Moderate synergy
synergy HHC:cisplatin ([27]; colorectal cancer cell lines): mild synergy
synergy HHC:cisplatin ([27]; ovarian and prostate cancer): Strong synergy
synergy HHC:paclitaxel ([27]; ovarian cancer and glioma cell lines): Equivocal synergy
chemosensitisation to gemcitabine ([27]; ovarian, prostate, breast and pancreatic cancers, and glioma): strongly chemosensitise
synergy HHC:cisplatin ([27]; pancreatic cancer and glioma): synergy was not observed
synergy HHC:paclitaxel ([27]; prostate and pancreatic cancer cell lines): no evidence of synergy
IC50 [28]: 340 nM
